Usually IC50 stands for the concentration that gives 50% inhibition. Lower therefore signals greater potency.

Where a name gives a salt, the structure may show the parent alone.

Our source for the IC50 values is patent US5011992A, “Pharmacologically active substituted benzamides” (Bristol-Myers Squibb Company, priority 1989, dated 1991).

T1 sequence (P61169 whole entry): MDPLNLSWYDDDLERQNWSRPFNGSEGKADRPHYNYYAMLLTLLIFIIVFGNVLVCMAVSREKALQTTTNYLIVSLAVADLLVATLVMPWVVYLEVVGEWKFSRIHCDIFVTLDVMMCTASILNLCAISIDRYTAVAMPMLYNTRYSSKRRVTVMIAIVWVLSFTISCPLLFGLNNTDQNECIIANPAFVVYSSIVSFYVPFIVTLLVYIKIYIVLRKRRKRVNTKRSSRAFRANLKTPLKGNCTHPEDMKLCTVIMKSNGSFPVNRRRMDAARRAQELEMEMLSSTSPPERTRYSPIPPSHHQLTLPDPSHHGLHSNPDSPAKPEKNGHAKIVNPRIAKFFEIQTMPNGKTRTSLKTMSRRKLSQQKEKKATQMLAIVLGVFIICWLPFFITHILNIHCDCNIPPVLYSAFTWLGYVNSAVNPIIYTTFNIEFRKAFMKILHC

This test concerns the target T1, dopaminergic (D2) receptors (Rattus norvegicus, UniProt P61169).
T1 construct: Homogenates (Brinkmann Polytron) of the corpus striatum in cold HEPES.KOH buffer; from tissue; host or cells: rat corpus striatum (washed membrane homogenate; rats from Charles River)
Nature of the test: 3H-Spiperone Displacement (striatal rat brain homogenates). The format is binding. To be noted: rat striatal homogenate, approx. 100 pM 3H-spiperone, 37° C., 15 min. How it is done:
(A) ^3 H-Spiperone Displacement
Rats (150±10 g; Charles River) were decapitated, the corpus striatum dissected out and frozen on dry ice. The tissues were pooled and stored at -80° C. until used. Homogenates (Brinkmann Polytron) of the corpus striatum in cold HEPES.KOH buffer (final pH=7.4) were centrifuged at 39,000× G. The supernatant was discarded and the pellets were re-suspended in HEPES.KOH buffer and re-centrifuged as above.
Tests to determine the Inhibitory Concentration50 (IC50) of the compounds of Formula I and reference compounds versus ^3 H-spiperone were conducted as follows. Tubes containing either 100 μL of buffer mixture (for total binding), 100 μL of buffer mixture plus 100 μL of 10^-4 M D(+)-butaclamol (for blanks, i.e. non-specific binding), or 100 μL of buffer mixture containing 10^-7, 10^-6 or 10^-5 M test compound were prepared. To each were added 100 μL of a solution of ^3 H-spiperone (New England Nuclear) in buffer mixture (2000 c.p.m. in the incubation mixture) and 800 μL of the striatal tissue suspension. The tubes were then diluted to 1 mL with buffer mixture, giving a final concentration of 10^-8, 10^-7 or 10^-6 M test compound and approximately 100 pM ^3 H-spiperone. The samples were incubated at 37° C. for 15 minutes, filtered in vacuo on glass fiber filters and counted by liquid scintillation spectrometry. […] All samples were run in duplicate.
In the case of `CCN(CC)CCNC(=O)c1cc(Cl)c(N)cc1OC(C)C(C)O` (mixture of isomers) [Example 41, 4-Amino-5-chloro-N-2-(diethylamino)ethyl]-2-[(2-hydroxy)but-3-yl]oxybenzamide (mixture of threo and erythro isomers)], the IC50 is greater than 1000 nM.

Compound `CCN(CC)CCNC(=O)c1cc(Cl)c(N)cc1OCCOC` [Example 1, 4-Amino-5-chloro-N-[2-(diethylamino)ethyl]-2-(2-methoxyethoxy)-benzamide] registered an IC50 greater than 1000 nM.

As for `CCN(CC)CCNC(=O)c1cc(Cl)c(N)cc1OCCO` [Example 2, 4-Amino-5-chloro-N-[2-(diethylamino)ethyl]-2-(2-hydroxyethoxy)benzamide], the IC50 is greater than 1000 nM.

With `CCN(CC)CCNC(=O)c1cc(Cl)c(N)cc1OCC(OC)OC` [Example 3], the IC50 is greater than 1000 nM.

The compound `CCN(CC)CCNC(=O)c1cc(Cl)c(N)cc1OCOCCOC` [Example 4] came in with an IC50 greater than 1000 nM.

As to `CCN(CC)CCNC(=O)c1cc(Cl)c(N)cc1OCC(C)=O` [Example 5, 4-Amino-5-chloro-N-[2-(diethylamino)ethyl]-2-(2-propanon-1-yl)-oxybenzamide], the half-inhibitory concentration (IC50) was greater than 1000 nM.

`CCN(CC)CCNC(=O)c1cc(Cl)c(N)cc1OCC(=O)c1ccccc1` [Example 6, 4-Amino-2-(2-phenyl-2-oxoethoxy)-5-chloro-N-[2-(diethylamino)ethyl]benzamid]: the IC50 was greater than 1000 nM.

As for `CCN(CC)CCNC(=O)c1cc(Cl)c(N)cc1OC(C)C(C)=O` (stereo not drawn) [Example 7, 4-Amino-2-(butan-2-on-3-yl)oxy-5-chloro-N-[2-(diethylamino)-ethyl]benzamide], the 50% inhibitory concentration (IC50) is greater than 1000 nM.

With `CCN(CC)CCNC(=O)c1cc(Cl)c(N)cc1OC1CCCCC1=O` (stereo not drawn) [Example 9, 4-Amino-5-chloro-2-(cyclohexanon-2-yl)oxy-N-[2-(diethylamino)ethyl]benzamide], the IC50 is greater than 1000 nM.

Consider `CCN(CC)CCNC(=O)c1cc(Cl)c(N)cc1OCC(C)=NO` [Example 10, 4-Amino-5-chloro-N-[2-(diethylamino)ethyl]-2-[(2-hydroxyimino)propan-1-yl]oxybenzamide], for which the IC50 was greater than 1000 nM.

With `CCN(CC)CCNC(=O)c1cc(Cl)c(N)cc1OCC(C)O` (stereo not drawn) [Example 12, 4-Amino-5-chloro-N-[2-(diethylamino)ethyl]-2-(2-hydroxypropan-1-yl)oxybenzamide], the IC50 is greater than 1000 nM.

As to `CCN(CC)CCNC(=O)c1cc(Cl)c(N)cc1OCC#N` [Example 13, 4-Amino-5-chloro-2-cyanomethoxy-N-[2-(diethylamino)ethyl]benzamide], the IC50 was greater than 1000 nM.

The compound `CCN(CC)CCNC(=O)c1cc(Cl)c(N)cc1OC(C)C#N` (stereo not drawn) [Example 14] yielded an IC50 greater than 1000 nM.

For `CCN(CC)CCNC(=O)c1cc(Cl)c(N)cc1OCC(=O)OC` [Example 15, 4-Amino-5-chloro-N-[2-(diethylamino)ethyl]-2-(2-methoxy-2-oxoethoxy)benzamide], the IC50 is greater than 1000 nM.

The compound `CCN(CC)CCNC(=O)c1cc(Cl)c(N)cc1OCC1COC(C)(C)O1` (stereo not drawn) [Example 18, 4-Amino-5-chloro-N-[2-(diethylamino)ethyl]-2-(2,2-dimethyl-1,3-dioxalan-4-yl)methoxybenzamide] returned an IC50 greater than 1000 nM.

Compound `CCN(CC)CCNC(=O)c1cc(Cl)c(N)cc1OCc1cc(C)no1` [Example 19, 4-Amino-5-chloro-N-[2-(diethylamino)ethyl]-2-(3-methylisoxazol-5-yl)methoxybenzamide] gave an IC50 greater than 1000 nM.

In the case of `C=CCC(Oc1cc(N)c(Cl)cc1C(=O)NCCN(CC)CC)C(C)=O` (stereo not drawn) [Example 24, 4-Amino-5-chloro-N-[2-(diethylamino)ethyl]-2-(5-hexen-2-on-3-yl)-oxybenzamide hydrochloride], the IC50 is greater than 1000 nM.

In the case of `CCC(Oc1cc(N)c(Cl)cc1C(=O)NCCN(CC)CC)C(C)=O` (stereo not drawn) [Example 25, 4-Amino-5-chloro-N-[2-(diethylamino)ethyl]-2-(pentan-2-on-3-yl)-oxybenzamide], the IC50 was greater than 1000 nM.

`CCC(=O)COc1cc(N)c(Cl)cc1C(=O)NCCN(CC)CC` [Example 26, 4-Amino-2-(2-butanon-1-yl)oxy-5-chloro-N-[2-(diethylamino)-ethyl]benzamide]: the IC50 was greater than 1000 nM.

For the compound `CCCC(=O)COc1cc(N)c(Cl)cc1C(=O)NCCN(CC)CC` [Example 27, 4-Amino-5-chloro-N-[2-(diethylamino)ethyl]-2-(pentan-2-on-1-yl)oxybenzamide], the IC50 was greater than 1000 nM.

`CCC(=O)C(C)Oc1cc(N)c(Cl)cc1C(=O)NCCN(CC)CC` (stereo not drawn) [Example 28, 4-Amino-5-chloro-2-(pentan-3-on-2-yl)oxy-N-(2-diethylaminoethyl)benzamide hydrochloride] had an IC50 greater than 1000 nM.

Turning to `CCN(CC)CCNC(=O)c1cc(Cl)c(N)cc1OCC(=O)C(C)C` [Example 29], the IC50 is greater than 1000 nM.

In the case of `CCN(CC)CCNC(=O)c1cc(Cl)c(N)cc1OCC(=O)Cc1ccccc1` [Example 30], the IC50 was greater than 1000 nM.

`CCN(CC)CCNC(=O)c1cc(Cl)c(N)cc1OC(C)(C)C(C)=O` [Example 31, 4-Amino-5-chloro-N-2-(diethylamino)ethyl]-2-[(3-methyl)butan-2-on-3-yl]oxybenzamide monohydrate] came in with an IC50 greater than 1000 nM.

With `CCN(CC)CCNC(=O)c1cc(Cl)c(N)cc1OCC(O)Cc1ccccc1` (stereo not drawn) [Example 33, 4-Amino-5-chloro-N-[2-(diethylamino)ethyl]-2-[2-(2-hydroxy-3-phenylpropyl)]oxybenzamide], the IC50 was greater than 1000 nM.

`CCN(CC)CCNC(=O)c1cc(Cl)c(N)cc1OCC1OCCO1` [Example 43] showed an IC50 greater than 1000 nM.

The compound `CCN(CC)CCNC(=O)c1cc(Cl)c(N)cc1OCc1ccccn1` [Example 45, 4-Amino-5-chloro-N-[2-(diethylamino)ethyl]-2-(2-pyridinomethyl)-oxybenzamide] showed an IC50 greater than 1000 nM.

`CCN(CC)CCNC(=O)c1cc(Cl)c(N)cc1OCCOCCOC` [Example 46, 4-Amino-5-chloro-N-[2-(diethylamino)ethyl]-2-(2-methoxyethoxyethyl)oxybenzamide] displayed an IC50 greater than 1000 nM.

As to `CCN(CC)CCNC(=O)c1cc(Cl)c(N)cc1OCC1=NCCN1` [Example 51, 4-Amino-5-chloro-N-[2-(diethylamino)ethyl]-2-(1H-4,5-dihydroimidazol-2-yl)methoxybenzamide], the IC50 was greater than 1000 nM.

As for `CCN(CC)CCNC(=O)c1cc(Cl)c(N)cc1OCCC1(C)OCCO1` [Example 54], the IC50 is greater than 1000 nM.
